Values joined by “and” are separate entries in the source; they are usually repeats but may differ in a detail not shown here. Identical values can stand only once.
Key:
Nurr1 protein = Nurr1 protein level, Western blot, MN9D cells with MPP+ or αSyn overexpression; type: cell-based, mouse; settings: for Relative Nurr1 expression (% of Cont.): Fig. S4g; for Relative Nurr1 expression (% of +GFP Basal): Fig. S4i
Description: Experiments were confirmed by duplicate measurements of the same sample. Quantification of immunoreactive bands was performed using ImageJ software (NIH, Bethesda, MD, USA) and expressed as a relative ratio against β-actin.
Lenti-GFP, -αSyn^WT, and -αSyn^A53T viruses were generated separately by co-transfecting each shuttle plasmid with lentivirus packaging plasmids into HEK293T cells using lipofectamine 2000 (Invitrogen). Briefly, 2 μg each FUW inducible shuttle plasmid, 2 μg FUW-rtTA, 2 μg psPax2 and 1.5 μg MD2.G were mixed and transfected into HEK293T cells. After 48 h, viral supernatants were collected and centrifuged at 1000g for 10 min, and subsequently filtered through a 0.45 μm filter. Lentiviruses were transduced into MN9D cells with 8 μg/ml of polybrene and the viral supernatant was removed and replaced with fresh medium a day after transduction.

[1] = tested on: AAV-αSyn-induced male mice; assay: Pole test, AAV-αSyn-induced PD model mice; type: in vivo, mouse; settings: αSynWT and αSynA53T mice; CQ 40, 4A7C-301 5 mg/kg/day i.p.
Text: Adeno-associated viruses (AAVs) expressing GFP only or αSyn (wild-type or A53T) were kindly provided by Dr. Yoon Seong Kim from the University of Central Florida. Recombinant AAV vectors were produced using modified pAAV-IRES-hrGFP (Agilent) to express wild-type and mutant human αSyn under control of the CMV promoter. Viral particles (AAV2) were produced at the University of Iowa Viral Vector Core according to standard operating procedures (https://medicine.uiowa.edu/vectorcore/). […] AAV vectors were delivered into the substantia nigra unilaterally by stereotaxic surgery.
(§1) Mice were trained to descend a vertical metal rod wrapped with rough tape (80 cm high, 12 mm diameter) once per day for 2 days, and then the baseline was measured before the pole test (3 days before the MPTP injection or the first pole test at week 2). Mice were placed head-upward on the pole and total descent time was recorded.

N27-A cells = assay: Mitochondrial activity assay, Seahorse XFp, N27-A cells; type: cell-based, rat; set-up: Seahorse time trace (OCR): unit not given here; settings: for OCR changes after FCCP injection: MPP+ co-treatment, individual replicates (Supplementary Figure S1o); for Seahorse time trace (OCR) / Basal respiration / Maximal respiration / ATP turnover: replicates; for Basal respiration: Fig. S1l; for Basal respiration / Maximal respiration / ATP turnover: with MPP+; for Maximal respiration: Fig. S1m; for ATP turnover: Fig. S1n
Description: Mitochondrial activity was measured using the Seahorse XFp analyzer (Agilent Technologies) according to the manufacturer’s instruction. Briefly, cells were plated onto wells of a XFp cell culture miniplate and incubated in a 37 °C incubator overnight. The assay was performed after cells were equilibrated for 1 h in XF assay medium supplemented with 10 mM D-glucose, 5 mM sodium pyruvate, and 2 mM glutamax in a non-CO2 incubator. Mitochondrial activity was monitored through sequential injections of 1 μM oligomycin, 2 μM carbonyl cyanide-4 (trifluoromethoxy) phenylhydrazone (FCCP) and 0.5 μM rotenone/antimycin A to calculate basal respiration (= baseline oxygen consumption rate (OCR)−rotenone/antimycin A OCR), maximal respiration (= FCCP OCR−rotenone/antimycin A OCR), ATP turnover (= baseline OCR−oligomycin OCR), and OCR changes after FCCP injection (= FCCP OCR−oligomycin OCR). Each plotted value was normalized to total protein quantified using a Bradford protein assay (Bio-Rad) and analyzed using the Seahorse WAVE Desktop software (Agilent Technologies).

MPTP-induced male mice = assay: Pole test, MPTP-induced PD model mice; type: in vivo, mouse
Description: MPTP (Sigma-Aldrich) was intraperitoneally (i.p.) injected (30 mg/kg) for 5 days (Day 1-5). […] To test dyskinetic involuntary behavior, an L-DOPA injected group was included, which received 50 mg/kg of L-DOPA and 15 mg/kg of benserazide (Sigma-Aldrich) (i.p.) for 16 days (Day 1–16). All compounds were administered 6 h post-MPTP injection to avoid any effect of compounds on the MPTP metabolism in the brain. Motor and non-motor related behavior tests were performed on the following days as described in Fig. 4a in an assessor- and observer-blinded fashion. Pre-training and baseline setup for motor-related behaviors were performed 3 days prior to the injections. Mice were sacrificed and subjected to immunohistochemistry. Mice were housed at the Animal Care Facilities of McLean Hospital under a 12-h light/12-h dark cycle, ambient temperature and humidity. Animals were handled in accordance with McLean Hospital’s Institutional Animal Care and Use Committee (Protocol #: 2015N000002) and followed National Institutes of Health guidelines.
as §1

Nurr1-LBD = Nurr1-LBD (Homo sapiens, UniProt P43354); assay: TR-FRET competition assay with HCQFluo; type: binding; settings: Fig. 1i
Nurr1-LBD, sequence (P43354 360-595 limits assumed, species assumed): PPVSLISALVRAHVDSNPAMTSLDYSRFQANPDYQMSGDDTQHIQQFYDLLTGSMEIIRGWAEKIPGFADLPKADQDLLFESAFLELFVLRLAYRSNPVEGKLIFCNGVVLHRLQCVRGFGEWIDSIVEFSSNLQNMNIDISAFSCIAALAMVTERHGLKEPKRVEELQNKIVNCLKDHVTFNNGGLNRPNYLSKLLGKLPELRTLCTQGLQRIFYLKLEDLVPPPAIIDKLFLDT
Description: TR-FRET assay was performed in PPI Terbium (Tb) detection buffer (PerkinElmer) and contained 0.2 µM of Nurr1-LBD, 0.5 µM of fluorescence-labeled hydroxy-CQ (HCQFluo; Proimaging) and serial concentrations of CQ, 4A7C-301 or RA (10^−4–10^6 nM). Rabbit anti-Nurr1 antibody (3 nM; prepared in our lab) and anti-rabbit IgG-Tb (1:400; Cisbio, 61PARTAF) were included in the assay solution as a donor complex. Assay solutions were loaded in a 384-well OptiPlate™ (PerkinElmer). After 2 h incubation in the dark at room temperature, the FRET signal was measured by excitation at 340 nm and emission at 520 nm for fluorescein and 495 nm for Tb using a VICTOR Nivo plate reader (PerkinElmer). Data were fit using the non-linear regression program in GraphPad Prism version 8.0.2.

## CCN1CCN(c2cc(N3CCN(CC)CC3)nc(NCCNc3ccnc4cc(Cl)ccc34)n2)CC1 [4A7C-301, N^1-(4,6-bis(4-ethylpiperazin-1-yl)pyrimidin-2-yl)-N^2-(7-chloroquinolin-4-yl)ethane-1,2-diamine]
Nurr1 protein; w/ MPP+
  Relative Nurr1 expression (% of Cont.): 99.091 % of Cont. and 100.486 % of Cont. and 100.693 % of Cont.
Nurr1 protein; w/o MPP+
  Relative Nurr1 expression (% of Cont.): 101.351 % of Cont. and 99.92 % of Cont. and 104.55 % of Cont.
Nurr1 protein; + GFP
  Relative Nurr1 expression (% of +GFP Basal): 98.029 % of +GFP Basal and 101.483 % of +GFP Basal and 98.211 % of +GFP Basal
Nurr1 protein; + αSynA53T
  Relative Nurr1 expression (% of +GFP Basal): 84.572 % of +GFP Basal and 86.142 % of +GFP Basal and 86.409 % of +GFP Basal
Nurr1 protein; + αSynWT
  Relative Nurr1 expression (% of +GFP Basal): 92.781 % of +GFP Basal and 95.357 % of +GFP Basal and 90.953 % of +GFP Basal
Nurr1 protein; against MPP+ and αSynWT overexpression
  Nurr1 protein levels (in words): significantly restored
Nurr1 protein; against αSynA53T overexpression
  Nurr1 protein levels (in words): maintained
[1]
  motor deficits, pole test (in words): improved motor deficits
N27-A cells; CQ 100 µM, 4A7C-301 1 µM
  OXPHOS capacity reduced by MPP+ (in words): efficiently restored
N27-A cells; Control N27-A cells
  OCR changes after FCCP injection: 22.93 pmol/min/µg protein and 28.37 pmol/min/µg protein and 27.04 pmol/min/µg protein and 22.31 pmol/min/µg protein
N27-A cells; Fig. S1j/k, Control + MPP+, time 2 min
  Seahorse time trace (OCR): 28.88 and 28.2 and 18.44 and 14.94
N27-A cells; Fig. S1j/k, Control + MPP+, time 8 min
  Seahorse time trace (OCR): 28.86 and 28.61 and 14.72 and 11.2
N27-A cells; Fig. S1j/k, Control + MPP+, time 15 min
  Seahorse time trace (OCR): 28.17 and 28.8 and 13.75 and 10.54
N27-A cells; Fig. S1j/k, Control + MPP+, time 21 min
  Seahorse time trace (OCR): 9.43 and 9.81 and 3.69 and 2.8
N27-A cells; Fig. S1j/k, Control + MPP+, time 28 min
  Seahorse time trace (OCR): 9.7 and 9.86 and 4.4 and 3.39
N27-A cells; Fig. S1j/k, Control + MPP+, time 34 min
  Seahorse time trace (OCR): 9.59 and 9.6 and 4.42 and 3.28
N27-A cells; Fig. S1j/k, Control + MPP+, time 41 min
  Seahorse time trace (OCR): 32.36 and 38.18 and 30.73 and 25.11
N27-A cells; Fig. S1j/k, Control + MPP+, time 47 min
  Seahorse time trace (OCR): 29.9 and 35.04 and 27.29 and 22.64
N27-A cells; Fig. S1j/k, Control + MPP+, time 54 min
  Seahorse time trace (OCR): 29.63 and 34.46 and 27.32 and 22.95
N27-A cells; Fig. S1j/k, Control + MPP+, time 61 min
  Seahorse time trace (OCR): 9.52 and 9.47 and 4.93 and 3.5
N27-A cells; Fig. S1j/k, Control + MPP+, time 67 min
  Seahorse time trace (OCR): 9.83 (2×) and 4.57 and 3.36
N27-A cells; Fig. S1j/k, Control + MPP+, time 74 min
  Seahorse time trace (OCR): 9.8 and 10.29 and 4.41 and 3.28
N27-A cells; Fig. S1j, Nurr1 OE + MPP+, time 2 min
  Seahorse time trace (OCR): 21.96 and 38.12 and 34.89 and 26.1
N27-A cells; Fig. S1j, Nurr1 OE + MPP+, time 8 min
  Seahorse time trace (OCR): 20.5 and 33.32 and 33.36 and 24.15
N27-A cells; Fig. S1j, Nurr1 OE + MPP+, time 15 min
  Seahorse time trace (OCR): 22.25 and 31.43 and 31.49 and 19.26
N27-A cells; Fig. S1j, Nurr1 OE + MPP+, time 21 min
  Seahorse time trace (OCR): 7.36 and 10.03 and 6.69 and 7.02
N27-A cells; Fig. S1j, Nurr1 OE + MPP+, time 28 min
  Seahorse time trace (OCR): 8.04 and 9.23 and 7.6 and 8.44
N27-A cells; Fig. S1j, Nurr1 OE + MPP+, time 34 min
  Seahorse time trace (OCR): 7.79 and 8.85 and 8.38 and 8.58
N27-A cells; Fig. S1j, Nurr1 OE + MPP+, time 41 min
  Seahorse time trace (OCR): 58.47 and 42.11 and 44.82 and 40.84
N27-A cells; Fig. S1j, Nurr1 OE + MPP+, time 47 min
  Seahorse time trace (OCR): 58.99 and 40.77 and 43.63 and 37.36
N27-A cells; Fig. S1j, Nurr1 OE + MPP+, time 54 min
  Seahorse time trace (OCR): 57.85 and 39.58 and 42.17 and 36.47
N27-A cells; Fig. S1j, Nurr1 OE + MPP+, time 61 min
  Seahorse time trace (OCR): 7.42 and 11.41 and 5.09 and 5.68
N27-A cells; Fig. S1j, Nurr1 OE + MPP+, time 67 min
  Seahorse time trace (OCR): 7.08 and 11.69 and 6.18 and 6.3
N27-A cells; Fig. S1j, Nurr1 OE + MPP+, time 74 min
  Seahorse time trace (OCR): 8.5 and 11.39 and 6.45 and 6.32
N27-A cells; Fig. S1k, Nurr1 KD + MPP+, time 2 min
  Seahorse time trace (OCR): 9.8 and 10.5 and 12.93 and 13.97
N27-A cells; Control cells
  Basal respiration: 19.37 pmol/min/µg protein and 19.34 pmol/min/µg protein and 12.02 pmol/min/µg protein and 10.67 pmol/min/µg protein
  Maximal respiration: 22.85 pmol/min/µg protein and 28.71 pmol/min/µg protein and 26.31 pmol/min/µg protein and 21.83 pmol/min/µg protein
  ATP turnover: 19.25 pmol/min/µg protein and 18 pmol/min/µg protein and 12.75 pmol/min/µg protein and 12.14 pmol/min/µg protein
N27-A cells; Nurr1 KD cells
  Basal respiration: 6.31 pmol/min/µg protein and 5.78 pmol/min/µg protein and 7.24 pmol/min/µg protein and 8.35 pmol/min/µg protein
  Maximal respiration: 28.48 pmol/min/µg protein and 29.74 pmol/min/µg protein and 27.18 pmol/min/µg protein and 19.97 pmol/min/µg protein
  ATP turnover: 5.27 pmol/min/µg protein and 5.05 pmol/min/µg protein and 6.03 pmol/min/µg protein and 7.23 pmol/min/µg protein
N27-A cells; Nurr1 OE cells
  Basal respiration: 19.17 pmol/min/µg protein and 26.73 pmol/min/µg protein and 28.79 pmol/min/µg protein and 22.43 pmol/min/µg protein
  Maximal respiration: 51.91 pmol/min/µg protein and 33.72 pmol/min/µg protein and 39.72 pmol/min/µg protein and 35.16 pmol/min/µg protein
  ATP turnover: 17.88 pmol/min/µg protein and 29.57 pmol/min/µg protein and 28.2 pmol/min/µg protein and 20.09 pmol/min/µg protein
N27-A cells; Nurr1 KD N27-A cells
  OCR changes after FCCP injection: 27.63 pmol/min/µg protein and 29.1 pmol/min/µg protein and 27.24 pmol/min/µg protein and 20.05 pmol/min/µg protein
N27-A cells; Nurr1 OE N27-A cells
  OCR changes after FCCP injection: 50.72 pmol/min/µg protein and 34.26 pmol/min/µg protein and 38.13 pmol/min/µg protein and 33.82 pmol/min/µg protein
MPTP-induced male mice; CQ 40, 4A7C-301 5, L-DOPA 50 mg/kg/day, i.p., 16 days
  motor function, pole test (in words): significantly rescued
MPTP-induced male mice; Figure 4c, MPTP-induced mice, individual animal values
  Time to traverse: 9.46 s and 8.08 s and 8.64 s and 7.97 s and 6.34 s and 6.11 s and 6.58 s and 5.5 s and 7.12 s
Nurr1-LBD; 0.05 µM
  Interaction [HTRF]: 3265.9820 and 3537.6830 and 3401.8330
Nurr1-LBD; 0.1 µM
  Interaction [HTRF]: 3598.5100 and 3223.1060 and 3410.8080
Nurr1-LBD; 0.5 µM
  Interaction [HTRF]: 3591.7500 and 3214.1330 and 3402.9410
Nurr1-LBD; 1 µM
  Interaction [HTRF]: 2993.5610 and 3208.3240 and 3100.9430
Nurr1-LBD; 5 µM
  Interaction [HTRF]: 3661.8470 and 3369.4680 and 3515.6580
Nurr1-LBD; 10 µM
  Interaction [HTRF]: 3348.5030 and 3240.2560 and 3294.3790
Nurr1-LBD; 50 µM
  Interaction [HTRF]: 3293.1070 and 2930.3900 and 3111.7480
Nurr1-LBD; 100 µM
  Interaction [HTRF]: 3045.7890 and 3264.7900 and 3155.2890
Nurr1-LBD; 200 µM
  Interaction [HTRF]: 3424.3450 and 3220.2860 and 3322.3150
Nurr1-LBD; competition with HCQFluo
  IC50: 108 nM and 100 nM

From article PMC10354055, “An optimized Nurr1 agonist provides disease-modifying effects in Parkinson’s disease models” (Nature Communications, 2023)
